Assay [1] concerns the target Casein kinase I isoform gamma-3 (Homo sapiens) (UniProt Q9Y6M4). Put plainly: Selectivity interaction (SelectScreen profiling (Invitrogen)) EUB0000607a CSNK1G3. To be noted: at 2 µM.
Assay [2] has as its target Serine/threonine-protein kinase OSR1 (Homo sapiens) (UniProt O95747). To be noted: at 10 µM.
Assay [3] deals with T1, Inhibitor of nuclear factor kappa-B kinase subunit beta (Homo sapiens) (UniProt O14920).
T1 sequence (whole entry): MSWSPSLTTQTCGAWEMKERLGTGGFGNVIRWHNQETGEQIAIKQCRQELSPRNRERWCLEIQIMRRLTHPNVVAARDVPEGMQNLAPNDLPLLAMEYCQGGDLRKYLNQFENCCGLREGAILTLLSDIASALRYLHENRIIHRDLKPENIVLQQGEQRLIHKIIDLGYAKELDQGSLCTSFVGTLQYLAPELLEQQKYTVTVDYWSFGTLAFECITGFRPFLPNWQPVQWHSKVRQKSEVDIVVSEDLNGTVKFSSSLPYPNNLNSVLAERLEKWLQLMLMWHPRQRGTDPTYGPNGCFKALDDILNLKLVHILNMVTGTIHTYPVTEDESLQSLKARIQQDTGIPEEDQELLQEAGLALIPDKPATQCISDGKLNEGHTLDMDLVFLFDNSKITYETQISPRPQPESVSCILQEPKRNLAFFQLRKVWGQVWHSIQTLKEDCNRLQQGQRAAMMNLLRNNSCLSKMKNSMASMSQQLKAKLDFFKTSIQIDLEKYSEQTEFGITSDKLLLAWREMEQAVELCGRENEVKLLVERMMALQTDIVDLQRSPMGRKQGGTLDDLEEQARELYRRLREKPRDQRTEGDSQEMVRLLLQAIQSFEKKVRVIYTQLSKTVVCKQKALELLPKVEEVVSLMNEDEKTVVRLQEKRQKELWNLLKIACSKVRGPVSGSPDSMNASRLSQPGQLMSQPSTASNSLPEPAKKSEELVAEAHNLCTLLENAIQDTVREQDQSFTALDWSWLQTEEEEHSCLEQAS
Put plainly: Selectivity interaction (KinomeScan (DiscoverX)) EUB0000229b IKBKB. The note with it: at 10 µM.

Assay [4] concerns the target T2, Serine/threonine-protein kinase LATS2 (Homo sapiens) (UniProt Q9NRM7).
T2 sequence (whole entry): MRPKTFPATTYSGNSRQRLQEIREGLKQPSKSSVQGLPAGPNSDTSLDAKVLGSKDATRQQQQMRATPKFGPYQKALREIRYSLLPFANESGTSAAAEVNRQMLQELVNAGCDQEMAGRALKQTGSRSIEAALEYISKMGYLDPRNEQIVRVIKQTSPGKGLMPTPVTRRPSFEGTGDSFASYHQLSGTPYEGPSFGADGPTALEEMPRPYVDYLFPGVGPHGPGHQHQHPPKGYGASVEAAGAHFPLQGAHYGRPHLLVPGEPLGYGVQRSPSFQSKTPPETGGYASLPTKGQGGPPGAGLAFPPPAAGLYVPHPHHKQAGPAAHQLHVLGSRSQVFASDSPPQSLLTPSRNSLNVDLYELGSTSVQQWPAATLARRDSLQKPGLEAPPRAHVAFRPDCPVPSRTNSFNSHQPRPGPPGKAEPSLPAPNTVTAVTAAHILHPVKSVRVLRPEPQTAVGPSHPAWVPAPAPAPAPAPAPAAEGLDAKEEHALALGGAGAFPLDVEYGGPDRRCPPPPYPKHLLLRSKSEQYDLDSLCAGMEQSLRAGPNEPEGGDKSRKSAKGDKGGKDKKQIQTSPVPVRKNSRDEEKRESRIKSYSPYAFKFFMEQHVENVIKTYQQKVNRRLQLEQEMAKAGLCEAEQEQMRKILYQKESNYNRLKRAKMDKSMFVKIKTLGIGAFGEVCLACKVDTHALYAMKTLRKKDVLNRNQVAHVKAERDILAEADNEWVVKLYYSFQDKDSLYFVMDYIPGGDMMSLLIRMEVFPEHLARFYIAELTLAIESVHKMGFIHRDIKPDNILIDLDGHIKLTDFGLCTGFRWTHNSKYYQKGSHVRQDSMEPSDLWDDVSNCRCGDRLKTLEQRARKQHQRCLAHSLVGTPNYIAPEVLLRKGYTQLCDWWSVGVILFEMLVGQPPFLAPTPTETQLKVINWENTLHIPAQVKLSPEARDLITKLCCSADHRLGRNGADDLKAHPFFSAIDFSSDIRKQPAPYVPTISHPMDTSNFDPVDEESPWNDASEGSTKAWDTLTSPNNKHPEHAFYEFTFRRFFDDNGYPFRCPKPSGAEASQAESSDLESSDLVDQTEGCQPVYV
The assay is described as follows: Selectivity interaction (ActivX KiNativ screen (ex vivo kinase selectivity in human PBMCs)) EUB0001619a LATS2. Format: cell-based. The note with it: PBMC, at 1 µM.

In assay [5] the target is Mitogen-activated protein kinase kinase kinase 20 (Homo sapiens) (UniProt Q9NYL2). Put plainly: Selectivity interaction (Kinase panel (Invitrogen)) EUB0000639a MAP3K20. The note with it: at 200 nM.
The target in assay [6] is Tyrosine-protein kinase Fyn (Homo sapiens) (UniProt P06241). The assay is described as follows: Selectivity interaction (ActivX KiNativ screen (kinase selectivity in THP-1 cell lysates)) EUB0000639a FYN. Format: subcellular. To be noted: lysate, at 0.2 µM.
Assay [7] deals with T3, Tyrosine-protein kinase ZAP-70 (Homo sapiens, UniProt P43403).
T3 sequence (P43403 whole entry): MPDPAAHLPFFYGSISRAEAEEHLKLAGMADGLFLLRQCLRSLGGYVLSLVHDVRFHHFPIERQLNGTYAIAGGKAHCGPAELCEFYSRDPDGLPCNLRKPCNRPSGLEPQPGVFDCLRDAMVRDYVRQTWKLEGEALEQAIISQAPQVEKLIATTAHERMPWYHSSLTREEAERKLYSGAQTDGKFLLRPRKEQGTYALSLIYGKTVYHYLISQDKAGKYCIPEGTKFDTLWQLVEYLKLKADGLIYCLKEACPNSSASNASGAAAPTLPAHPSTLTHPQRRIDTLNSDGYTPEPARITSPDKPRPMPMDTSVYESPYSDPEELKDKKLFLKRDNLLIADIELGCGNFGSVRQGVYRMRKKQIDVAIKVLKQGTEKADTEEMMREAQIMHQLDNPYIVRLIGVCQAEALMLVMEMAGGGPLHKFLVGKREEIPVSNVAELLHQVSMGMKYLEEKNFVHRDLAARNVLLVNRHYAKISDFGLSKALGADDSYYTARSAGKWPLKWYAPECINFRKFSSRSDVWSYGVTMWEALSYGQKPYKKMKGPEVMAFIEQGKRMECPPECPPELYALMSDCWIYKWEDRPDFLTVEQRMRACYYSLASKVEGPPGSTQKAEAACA

In assay [8] the target is G protein-coupled receptor kinase 6 (Homo sapiens) (UniProt P43250). The assay is described as follows: Selectivity interaction (ProQinase) EUB0000171b GRK6.
Assay [9] deals with Mitogen-activated protein kinase 6 (Homo sapiens) (UniProt Q16659). The assay is described as follows: Selectivity interaction (KinomeScan (DiscoverX)) EUB0000045b MAPK6.

By IC50 is commonly meant the concentration that inhibits the measured activity by half. Lower therefore signals greater potency in that assay.

Chain of G protein-coupled receptor kinase 6 (Homo sapiens) (P43250 whole entry, looked up): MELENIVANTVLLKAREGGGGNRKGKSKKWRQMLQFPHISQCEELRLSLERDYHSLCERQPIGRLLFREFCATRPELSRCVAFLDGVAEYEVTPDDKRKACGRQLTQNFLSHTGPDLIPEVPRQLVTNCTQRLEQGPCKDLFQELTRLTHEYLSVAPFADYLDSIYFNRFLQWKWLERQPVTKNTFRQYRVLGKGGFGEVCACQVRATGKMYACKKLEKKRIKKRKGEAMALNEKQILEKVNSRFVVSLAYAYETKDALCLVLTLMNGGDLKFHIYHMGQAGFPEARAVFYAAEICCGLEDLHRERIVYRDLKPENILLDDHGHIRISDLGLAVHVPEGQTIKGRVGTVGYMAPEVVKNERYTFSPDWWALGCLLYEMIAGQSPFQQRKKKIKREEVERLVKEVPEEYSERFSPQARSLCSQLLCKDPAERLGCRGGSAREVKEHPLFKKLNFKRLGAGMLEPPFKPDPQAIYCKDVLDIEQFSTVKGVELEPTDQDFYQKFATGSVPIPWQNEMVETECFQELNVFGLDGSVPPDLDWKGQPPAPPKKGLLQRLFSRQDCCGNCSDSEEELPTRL
Chain of Mitogen-activated protein kinase 6 (Homo sapiens) (Q16659 whole entry): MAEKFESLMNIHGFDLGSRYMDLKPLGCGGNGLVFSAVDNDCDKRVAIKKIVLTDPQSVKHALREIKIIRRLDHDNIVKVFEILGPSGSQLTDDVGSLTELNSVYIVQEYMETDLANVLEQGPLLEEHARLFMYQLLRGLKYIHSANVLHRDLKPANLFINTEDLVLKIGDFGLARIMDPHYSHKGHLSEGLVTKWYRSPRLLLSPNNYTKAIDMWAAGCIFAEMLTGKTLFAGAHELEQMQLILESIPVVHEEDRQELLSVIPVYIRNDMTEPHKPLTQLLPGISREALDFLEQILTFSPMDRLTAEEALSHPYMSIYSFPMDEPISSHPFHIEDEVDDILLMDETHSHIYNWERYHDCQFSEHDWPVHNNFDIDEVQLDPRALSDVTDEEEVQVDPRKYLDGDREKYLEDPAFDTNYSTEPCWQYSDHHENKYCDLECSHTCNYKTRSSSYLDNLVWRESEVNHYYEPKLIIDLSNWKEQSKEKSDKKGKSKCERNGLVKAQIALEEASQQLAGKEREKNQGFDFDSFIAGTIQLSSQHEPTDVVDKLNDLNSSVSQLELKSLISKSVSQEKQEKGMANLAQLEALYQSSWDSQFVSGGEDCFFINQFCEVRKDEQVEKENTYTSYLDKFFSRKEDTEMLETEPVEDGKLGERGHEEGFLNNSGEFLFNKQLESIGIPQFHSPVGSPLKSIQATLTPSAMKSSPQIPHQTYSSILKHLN
Chain of Tyrosine-protein kinase Fyn (Homo sapiens) (P06241 2-537 limits assumed): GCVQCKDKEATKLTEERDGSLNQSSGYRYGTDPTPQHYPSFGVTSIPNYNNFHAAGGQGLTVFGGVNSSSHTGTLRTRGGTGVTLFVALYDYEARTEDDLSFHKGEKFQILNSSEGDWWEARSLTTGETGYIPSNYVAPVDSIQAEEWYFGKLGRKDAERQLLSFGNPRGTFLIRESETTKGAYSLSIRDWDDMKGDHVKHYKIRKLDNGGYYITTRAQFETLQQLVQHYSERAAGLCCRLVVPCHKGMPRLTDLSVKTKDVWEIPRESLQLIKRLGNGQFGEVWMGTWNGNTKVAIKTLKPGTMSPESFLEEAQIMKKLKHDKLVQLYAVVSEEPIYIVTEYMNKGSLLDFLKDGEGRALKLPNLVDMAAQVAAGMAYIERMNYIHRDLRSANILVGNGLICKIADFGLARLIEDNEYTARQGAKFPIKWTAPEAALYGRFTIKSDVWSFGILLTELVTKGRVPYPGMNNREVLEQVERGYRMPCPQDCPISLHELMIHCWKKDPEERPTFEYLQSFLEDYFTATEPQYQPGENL
Chain of Serine/threonine-protein kinase OSR1 (Homo sapiens) (O95747 2-527 limits assumed): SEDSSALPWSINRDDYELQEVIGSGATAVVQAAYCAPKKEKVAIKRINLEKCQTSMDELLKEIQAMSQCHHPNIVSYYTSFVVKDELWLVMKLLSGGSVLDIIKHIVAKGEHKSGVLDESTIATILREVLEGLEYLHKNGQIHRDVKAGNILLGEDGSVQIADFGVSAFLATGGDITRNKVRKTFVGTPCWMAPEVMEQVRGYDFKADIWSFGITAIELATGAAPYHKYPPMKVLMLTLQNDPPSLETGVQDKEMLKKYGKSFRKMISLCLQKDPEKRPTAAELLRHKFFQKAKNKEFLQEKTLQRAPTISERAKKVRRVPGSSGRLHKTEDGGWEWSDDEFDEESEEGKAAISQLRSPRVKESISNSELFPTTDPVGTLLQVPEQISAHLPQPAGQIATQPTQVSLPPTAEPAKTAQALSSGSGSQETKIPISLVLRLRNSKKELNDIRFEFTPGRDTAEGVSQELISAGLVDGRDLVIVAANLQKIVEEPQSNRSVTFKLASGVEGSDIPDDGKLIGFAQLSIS
Chain of Casein kinase I isoform gamma-3 (Homo sapiens) (Q9Y6M4 whole entry, looked up, canonical isoform): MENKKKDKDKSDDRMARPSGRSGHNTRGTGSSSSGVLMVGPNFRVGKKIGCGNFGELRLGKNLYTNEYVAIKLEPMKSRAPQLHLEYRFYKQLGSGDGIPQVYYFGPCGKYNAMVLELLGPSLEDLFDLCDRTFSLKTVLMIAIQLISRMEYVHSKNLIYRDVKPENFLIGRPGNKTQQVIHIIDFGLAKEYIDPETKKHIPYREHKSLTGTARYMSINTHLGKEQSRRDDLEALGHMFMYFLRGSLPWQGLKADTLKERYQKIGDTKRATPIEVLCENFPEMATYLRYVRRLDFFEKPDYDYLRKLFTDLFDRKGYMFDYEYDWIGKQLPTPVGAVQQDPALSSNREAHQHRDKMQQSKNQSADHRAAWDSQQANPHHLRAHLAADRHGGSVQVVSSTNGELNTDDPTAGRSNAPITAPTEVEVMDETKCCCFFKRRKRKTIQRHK
Chain of Mitogen-activated protein kinase kinase kinase 20 (Homo sapiens) (Q9NYL2 2-800 limits assumed): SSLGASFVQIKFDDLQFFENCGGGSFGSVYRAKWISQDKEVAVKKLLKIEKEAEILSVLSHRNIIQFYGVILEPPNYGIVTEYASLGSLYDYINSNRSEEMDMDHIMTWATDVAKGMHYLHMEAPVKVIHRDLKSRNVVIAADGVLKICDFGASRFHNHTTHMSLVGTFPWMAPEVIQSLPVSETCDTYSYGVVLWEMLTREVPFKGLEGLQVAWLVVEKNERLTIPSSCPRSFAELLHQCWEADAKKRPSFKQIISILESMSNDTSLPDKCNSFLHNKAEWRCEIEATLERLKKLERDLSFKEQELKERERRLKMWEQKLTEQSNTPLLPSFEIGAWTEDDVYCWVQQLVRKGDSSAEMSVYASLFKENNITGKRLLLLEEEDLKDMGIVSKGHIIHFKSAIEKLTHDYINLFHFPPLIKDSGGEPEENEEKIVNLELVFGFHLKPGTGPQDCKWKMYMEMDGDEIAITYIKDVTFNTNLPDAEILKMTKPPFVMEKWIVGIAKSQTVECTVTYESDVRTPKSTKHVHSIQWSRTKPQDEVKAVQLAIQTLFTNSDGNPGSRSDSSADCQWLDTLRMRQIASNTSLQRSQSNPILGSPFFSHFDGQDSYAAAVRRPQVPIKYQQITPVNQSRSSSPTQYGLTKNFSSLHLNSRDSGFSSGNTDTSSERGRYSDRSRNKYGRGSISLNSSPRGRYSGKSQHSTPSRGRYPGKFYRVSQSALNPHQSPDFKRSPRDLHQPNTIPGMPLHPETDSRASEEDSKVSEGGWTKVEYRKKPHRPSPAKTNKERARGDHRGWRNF

For `CNC(=O)Nc1ccc(-c2nc(N3CC4CCC(C3)O4)c3cnn(C4CCC5(CC4)OCCO5)c3n2)cc1`, the % of inhibition in [1] is -1%.
As for `Cc1cc([C@@H](C)Nc2ccccc2C(=O)O)c2nc(N3CCOCC3)cc(=O)n2c1` [AZD-6482], the % of control in assay [2] came out at 100%.
For `COc1cc(N(C)c2ccnc3ccc(C(F)(F)F)cc23)cc(OC)c1OC`, in [3], the % binding worked out at 94%.
On to `N#Cc1cccc(-c2c[nH]c3ncnc(N4CCOCC4)c23)c1`, for which the % of inhibition in [4] was found to be 16%.
As for `CC[C@@H]1[C@H](F)C(=O)N[C@@H]1COc1nccc2cc(C(N)=O)c(OC)cc12` [ZIMLOVISERTIB], the % of inhibition was found to be 1.12% in [5] and 0.7% in [6].
For `CCc1cccc(CC)c1NC(=O)c1nn(C)c2c1CCc1cnc(Nc3ccc(C(=O)NC4CCN(C)CC4)cc3OC(F)(F)F)nc1-2`, the IC50 in assay [7] was over 10 µM.
Consider `C=CC(=O)Nc1cccc(C(=O)Nc2ccc(Nc3cc(-c4[nH]c(SC)nc4C)ccn3)cc2)c1`, for which the % of control in assay [8] (at 1 µM) came out at 88%; in assay [8] (at 5 µM) it was 90%.
With `C=CC(=O)Nc1cc(-n2c(=O)ccc3cnc4ccc(-c5ccc(NS(C)(=O)=O)cc5)cc4c32)ccc1C`, the results for the % of control in [9] (at 1 µM) and in assay [9] (at 10 µM) were 82% and 100%, respectively.

The values are drawn from ChEMBL document CHEMBL5465560, “Selectivity Literature for EUbOPEN Chemogenomic Library” (2024).
